According to patent US10919911B2, “Tricyclic ASK1 inhibitors” (Terns, Inc., priority 2018, dated 2021):

Molecular target: ASK1 kinase (Homo sapiens (Human), UniProt Q99683)
Assay: RBC Kinase Assay (33P-ATP radiometric, myelin basic protein substrate)
Format: biochemical
Conditions: 20 ng ASK1 kinase, MBP substrate, 120 min at room temperature, 1% DMSO
Method: Example B1. RBC Kinase Assay Protocol
Base Reaction buffer: 20 mM Hepes (pH 7.5), 10 mM MgCl2, 1 mM EGTA, 0.02% Brij35, 0.02 mg/ml BSA, 0.1 mM Na3VO4, 2 mM DTT, and 1% DMSO were used for the assay.
Myelin base protein (MPB) was prepared in freshly prepared Base Reaction Buffer. 20 ng of ASK1 kinase was delivered into the substrate solution and gently mixed. Compounds in DMSO were delivered into the kinase reaction mixture (final DMSO concentration 1%). Commercially available 33P-ATP was delivered into the reaction mixture to initiate the reaction. The kinase reaction was incubated for 120 min. at room temperature. Reactions were spotted onto P81 ion exchange paper (Whatman #3698-915). Filters were washed extensively in 0.75% Phosphoric acid. Radioactivity on filters was read, and IC50 values were determined.

Chain of ASK1 kinase (Q99683 whole entry): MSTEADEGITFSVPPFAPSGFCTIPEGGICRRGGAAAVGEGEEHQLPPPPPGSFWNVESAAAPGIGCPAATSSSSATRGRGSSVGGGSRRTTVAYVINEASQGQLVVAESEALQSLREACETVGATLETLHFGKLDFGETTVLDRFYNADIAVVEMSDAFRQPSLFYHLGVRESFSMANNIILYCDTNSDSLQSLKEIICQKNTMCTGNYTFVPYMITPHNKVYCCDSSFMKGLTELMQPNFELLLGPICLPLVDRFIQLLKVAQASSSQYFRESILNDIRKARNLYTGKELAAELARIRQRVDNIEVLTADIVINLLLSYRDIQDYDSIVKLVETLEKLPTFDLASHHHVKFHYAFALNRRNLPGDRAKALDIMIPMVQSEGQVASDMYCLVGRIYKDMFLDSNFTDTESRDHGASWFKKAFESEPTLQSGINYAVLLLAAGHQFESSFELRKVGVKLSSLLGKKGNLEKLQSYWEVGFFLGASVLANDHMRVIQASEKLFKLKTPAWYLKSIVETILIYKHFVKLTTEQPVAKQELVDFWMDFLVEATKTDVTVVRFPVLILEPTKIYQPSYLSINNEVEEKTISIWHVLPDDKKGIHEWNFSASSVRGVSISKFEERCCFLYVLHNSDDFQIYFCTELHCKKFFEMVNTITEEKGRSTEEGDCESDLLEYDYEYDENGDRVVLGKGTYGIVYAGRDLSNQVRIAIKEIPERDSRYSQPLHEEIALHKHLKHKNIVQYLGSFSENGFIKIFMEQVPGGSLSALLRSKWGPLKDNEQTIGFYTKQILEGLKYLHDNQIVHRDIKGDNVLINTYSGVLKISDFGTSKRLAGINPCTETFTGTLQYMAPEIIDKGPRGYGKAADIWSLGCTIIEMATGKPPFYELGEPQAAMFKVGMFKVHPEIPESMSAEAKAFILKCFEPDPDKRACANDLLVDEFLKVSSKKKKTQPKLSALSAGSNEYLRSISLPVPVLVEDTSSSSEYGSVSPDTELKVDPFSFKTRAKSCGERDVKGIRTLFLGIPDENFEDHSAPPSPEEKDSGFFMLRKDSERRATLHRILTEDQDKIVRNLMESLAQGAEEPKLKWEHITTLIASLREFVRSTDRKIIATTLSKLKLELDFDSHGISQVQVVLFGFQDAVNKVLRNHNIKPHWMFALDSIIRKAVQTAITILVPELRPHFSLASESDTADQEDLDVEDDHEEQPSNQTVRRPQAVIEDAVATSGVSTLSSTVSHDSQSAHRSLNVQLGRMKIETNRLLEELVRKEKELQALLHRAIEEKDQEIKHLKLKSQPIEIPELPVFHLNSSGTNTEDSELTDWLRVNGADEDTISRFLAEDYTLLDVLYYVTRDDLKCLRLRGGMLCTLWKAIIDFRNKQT

| Compound | IC50 [nM] |
| --- | --- |
| Cc1cc(F)c(C(=O)Nc2cccc3c2O[C@@H](C)Cn2nnnc2-3)cc1-n1cnc(C2CC2)c1 [Example 42, (S)-5-(4-cyclopropyl-1H-imidazol-1-yl)-2-fluoro-4-methyl-N-(6-methyl-5,6-dihydrobenzo[f]tetrazolo[1,5-d][1,4]oxazepin-8-yl)benzamide] | 16.8 |
| Cc1cc(F)c(C(=O)Nc2cccc3c2OCCn2nnnc2-3)cc1-n1cnc(C2CC2)c1 [Example 79, 5-(4-cyclopropyl-1H-imidazol-1-yl)-N-(5,6-dihydrobenzo[f]tetrazolo[1,5-d][1,4]oxazepin-8-yl)-2-fluoro-4-methylbenzamide] | 6.6 |
| Cc1cc(F)c(C(=O)Nc2cccc3c2OC[C@H](C)n2cncc2-3)cc1-n1cnc(C2CC2)c1 [Example 46, (S)-5-(4-cyclopropyl-1H-imidazol-1-yl)-2-fluoro-4-methyl-N-(5-methyl-5,6-dihydrobenzo[f]imidazo[1,5-d][1,4]oxazepin-8-yl)benzamide] | 15.1 |
| Cc1cc(F)c(C(=O)Nc2cccc3c2OC[C@@H](C)n2cnnc2-3)cc1-n1cnc(C2CC2)c1 [Example 1, (R)-5-(4-cyclopropyl-1H-imidazol-1-yl)-2-fluoro-4-methyl-N-(5-methyl-5,6-dihydrobenzo[f][1,2,4]triazolo[4,3-d][1,4]oxazepin-8-yl)benzamide] | 5.8 |
| Cc1cc(F)c(C(=O)Nc2cccc3c2OC2(CCC2)Cn2nnnc2-3)cc1-n1cnc(C2CC2)c1 [Example 72, 5-(4-cyclopropyl-1H-imidazol-1-yl)-2-fluoro-4-methyl-N-(5H-spiro[benzo[f]tetrazolo[1,5-d][1,4]oxazepine-6,1′-cyclobutan]-8-yl)benzamide] | 11.6 |
| Cc1cc(F)c(C(=O)Nc2cccc3c2OC[C@@H](C)n2cncc2-3)cc1-n1cnc(C2CC2)c1 [Example 47, (R)-5-(4-cyclopropyl-1H-imidazol-1-yl)-2-fluoro-4-methyl-N-(5-methyl-5,6-dihydrobenzo[f]imidazo[1,5-d][1,4]oxazepin-8-yl)benzamide] | 6.8 |
| Cc1cc(F)c(C(=O)Nc2cccc3c2O[C@H](C)Cn2cnnc2-3)cc1-n1cnc(C2CC2)c1 [Example 34, (R)-5-(4-cyclopropyl-1H-imidazol-1-yl)-2-fluoro-4-methyl-N-(6-methyl-5,6-dihydrobenzo[f][1,2,4]triazolo[4,3-d][1,4]oxazepin-8-yl)benzamide] | 4.1 |
| CC(C)Oc1cnc(C(=O)Nc2cccc3c2OCCn2cnnc2-3)cc1-n1cnc(C2CC2)c1 [Example 73, 4-(4-cyclopropyl-1H-imidazol-1-yl)-N-(5,6-dihydrobenzo[f][1,2,4]triazolo[4,3-d][1,4]oxazepin-8-yl)-5-isopropoxypicolinamide] | 5.8 |
| Cc1cc(F)c(C(=O)Nc2cccc3c2OC[C@H](C)n2cnnc2-3)cc1-n1cnc(C2CC2)c1 [Example 2, (S)-5-(4-cyclopropyl-1H-imidazol-1-yl)-2-fluoro-4-methyl-N-(5-methyl-5,6-dihydrobenzo[f][1,2,4]triazolo[4,3-d][1,4]oxazepin-8-yl)benzamide] | 9.1 |
| Cc1cc(F)c(C(=O)Nc2cccc3c2OCC(C)(C)n2nnnc2-3)cc1-n1cnc(C2CC2)c1 [Example 13, 5-(4-cyclopropyl-1H-imidazol-1-yl)-N-(5,5-dimethyl-5,6-dihydrobenzo[f]tetrazolo[1,5-d][1,4]oxazepin-8-yl)-2-fluoro-4-methylbenzamide] | 5.2 |
| CN1CCN(c2cnc(C(=O)Nc3cccc4c3OCCn3nnnc3-4)cc2-n2cnc(C3CC3)c2)CC1 [Example 54, 4-(4-cyclopropyl-1H-imidazol-1-yl)-N-(5,6-dihydrobenzo[f]tetrazolo[1,5-d][1,4]oxazepin-8-yl)-5-(4-methylpiperazin-1-yl)picolinamide] | 5.9 |
| CC1(C)COc2c(NC(=O)c3cc(-n4cnc(C5CC5)c4)c(N4CCOCC4)cn3)cccc2-c2nnnn21 [Example 37, 4-(4-cyclopropyl-1H-imidazol-1-yl)-N-(5,5-dimethyl-5,6-dihydrobenzo[f]tetrazolo[1,5-d][1,4]oxazepin-8-yl)-5-morpholinopicolinamide] | 0.5 |
| O=C(Nc1cccc2c1OCC1(CC1)n1nnnc1-2)c1cc(-n2cnc(C3CC3)c2)c(N2CCOCC2)cn1 [Example 20, 4-(4-cyclopropyl-1H-imidazol-1-yl)-5-morpholino-N-(6H-spiro[benzo[f]tetrazolo[1,5-d][1,4]oxazepine-5,1′-cyclopropan]-8-yl)picolinamide] | 6 |
| C[C@H]1COCCN1c1cnc(C(=O)Nc2cccc3c2OCCn2nnnc2-3)cc1-n1cnc(C2CC2)c1 [Example 65, (S)-4-(4-cyclopropyl-1H-imidazol-1-yl)-N-(5,6-dihydrobenzo[f]tetrazolo[1,5-d][1,4]oxazepin-8-yl)-5-(3-methylmorpholino)picolinamide] | 3.3 |

Further lines, results first:

| IC50 [nM] | Compound |
| --- | --- |
| 5.1 | Cc1cc(F)c(C(=O)Nc2cccc3c2OC[C@@H]([C@H](C)O)n2nnnc2-3)cc1-n1cnc(C2CC2)c1 [Example 48, 5-(4-cyclopropyl-1H-imidazol-1-yl)-2-fluoro-N—((S)-5-((S)-1-hydroxyethyl)-5,6-dihydrobenzo[f]tetrazolo[1,5-d][1,4]oxazepin-8-yl)-4-methylbenzamide] |
| 4.7 | C[C@H]1COc2c(NC(=O)c3cc(-n4cnc(C5CC5)c4)c(N4CC[C@@H](O)C4)cn3)cccc2-c2nnnn21 [Example 78, 4-(4-cyclopropyl-1H-imidazol-1-yl)-5-((R)-3-hydroxypyrrolidin-1-yl)-N—((S)-5-methyl-5,6-dihydrobenzo[f]tetrazolo[1,5-d][1,4]oxazepin-8-yl)picolinamide] |
| 4.1 | O=C(Nc1cccc2c1OC[C@@H](CF)n1cnnc1-2)c1cc(-n2cnc(C3CC3)c2)ccn1 [Example 29, (S)-4-(4-cyclopropyl-1H-imidazol-1-yl)-N-(5-(fluoromethyl)-5,6-dihydrobenzo[f][1,2,4]triazolo[4,3-d][1,4]oxazepin-8-yl)picolinamide] |
| 3.2 | O=C(Nc1cccc2c1OCCn1nnnc1-2)c1cc(-n2cnc(C3CC3)c2)c(N2CCC2)cn1 [Example 58, 5-(azetidin-1-yl)-4-(4-cyclopropyl-1H-imidazol-1-yl)-N-(5,6-dihydrobenzo[f]tetrazolo[1,5-d][1,4]oxazepin-8-yl)picolinamide] |
| 5.2 | Cc1cc(F)c(C(=O)Nc2cccc3c2OC[C@H](CO)n2cnnc2-3)cc1-n1cnc(C2CC2)c1 [Example 16, (S)-5-(4-cyclopropyl-1H-imidazol-1-yl)-2-fluoro-N-(5-(hydroxymethyl)-5,6-dihydrobenzo[f][1,2,4]triazolo[4,3-d][1,4]oxazepin-8-yl)-4-methylbenzamide] |
| 1.8 | CC(C)Oc1cnc(C(=O)Nc2cccc3c2OCCn2nnnc2-3)cc1-n1cnc(C2CC2)c1 [Example 68, 4-(4-cyclopropyl-1H-imidazol-1-yl)-N-(5,6-dihydrobenzo[f]tetrazolo[1,5-d][1,4]oxazepin-8-yl)-5-isopropoxypicolinamide] |
| 3.9 | O=C(Nc1cccc2c1OCCn1nnnc1-2)c1cc(-n2cnc(C3CC3)c2)ccn1 [Example 50, 4-(4-cyclopropyl-1H-imidazol-1-yl)-N-(5,6-dihydrobenzo[f]tetrazolo[1,5-d][1,4]oxazepin-8-yl)picolinamide] |
| 5.7 | C[C@H]1COc2c(NC(=O)c3cc(-n4cnc(C5CC5)c4)ccn3)cccc2-c2nncn21 [Example 80, (S)-4-(4-cyclopropyl-1H-imidazol-1-yl)-N-(5-methyl-5,6-dihydrobenzo[f][1,2,4]triazolo[4,3-d][1,4]oxazepin-8-yl)picolinamide] |
| 35.2 | O=C(Nc1cccc2c1OCCn1cnnc1-2)c1cc(-n2cnc(C3CC3)c2)ccn1 [Example 56, 4-(4-cyclopropyl-1H-imidazol-1-yl)-N-(5,6-dihydrobenzo[f][1,2,4]triazolo[4,3-d][1,4]oxazepin-8-yl)picolinamide] |
| 5.7 | O=C(Nc1cccc2c1OC[C@@H](CF)n1nnnc1-2)c1cc(-n2cnc(C3CC3)c2)ccn1 [Example 31, (S)-4-(4-cyclopropyl-1H-imidazol-1-yl)-N-(5-(fluoromethyl)-5,6-dihydrobenzo[f]tetrazolo[1,5-d][1,4]oxazepin-8-yl)picolinamide] |
| 6.8 | O=C(Nc1cccc2c1OC[C@H](CF)n1nnnc1-2)c1cc(-n2cnc(C3CC3)c2)ccn1 [Example 27, (R)-4-(4-cyclopropyl-1H-imidazol-1-yl)-N-(5-(fluoromethyl)-5,6-dihydrobenzo[f]tetrazolo[1,5-d][1,4]oxazepin-8-yl)picolinamide] |
| 5.3 | CC(C)Oc1cnc(C(=O)Nc2cccc3c2OC[C@H](C)n2nnnc2-3)cc1-n1cnc(C2CC2)c1 [Example 71, (S)-4-(4-cyclopropyl-1H-imidazol-1-yl)-5-isopropoxy-N-(5-methyl-5,6-dihydrobenzo[f]tetrazolo[1,5-d][1,4]oxazepin-8-yl)picolinamide] |
| 5.9 | C[C@@H]1Cn2cnnc2-c2cccc(NC(=O)c3cc(-n4cnc(C5CC5)c4)ccn3)c2O1 [Example 52, (R)-4-(4-cyclopropyl-1H-imidazol-1-yl)-N-(6-methyl-5,6-dihydrobenzo[f][1,2,4]triazolo[4,3-d][1,4]oxazepin-8-yl)picolinamide] |
| 5.4 | C[C@@H]1COc2c(NC(=O)c3cc(-n4cnc(C5CC5)c4)ccn3)cccc2-c2nncn21 [Example 11, (R)-4-(4-cyclopropyl-1H-imidazol-1-yl)-N-(5-methyl-5,6-dihydrobenzo[f][1,2,4]triazolo[4,3-d][1,4]oxazepin-8-yl)picolinamide] |
